From ChEMBL document CHEMBL1817657, “Block of the hERG channel by bupivacaine: Electrophysiological and modeling insights towards stereochemical optimization” (Eur J Med Chem, 2011)
pIC50: −log10 of the molar value. Counter-ions that a name gives are not always drawn.

Experiments:
Format in all cases: cell-based
[1] = target: T1, Voltage-gated inwardly rectifying potassium channel KCNH2 (Homo sapiens, UniProt Q12809); assay: Inhibition of wild-type human ERG channel expressed in HEK293 cells assessed as blockade of potassium tail current by whole-cell patch clamp technique
[2] = target: T2, Voltage-gated inwardly rectifying potassium channel KCNH2 (Homo sapiens, UniProt Q12809, Y652A); assay: Inhibition of human ERG Y652A mutant channel expressed in HEK293 cells assessed as blockade of potassium tail current by whole-cell patch clamp technique
[3] = target: Voltage-gated inwardly rectifying potassium channel KCNH2 (Homo sapiens, UniProt Q12809, F656A); assay: Inhibition of human ERG F656A mutant channel expressed in HEK293 cells assessed as blockade of potassium tail current by whole-cell patch clamp technique
[4] = target: T1, Voltage-gated inwardly rectifying potassium channel KCNH2; assay: Inhibition of wild-type human ERG channel expressed in CHO cells by whole-cell patch clamp technique
[5] = target: Voltage-gated inwardly rectifying potassium channel KCNH2 (Homo sapiens, UniProt Q12809, V659A); assay: Inhibition of human ERG V659A mutant channel expressed in HEK293 cells assessed decrease in blockade of potassium tail current at 1 mM by whole-cell patch clamp technique; details: hek293, 1000 µM
HEK293 [6] = assay: Ratio IC50 for human ERG Y652A mutant channel expressed in HEK293 cells to IC50 for wild-type human ERG channel expressed in HEK293 cells
HEK293 [7] = assay: Ratio IC50 for human ERG F656A mutant channel expressed in HEK293 cells to IC50 for wild-type human ERG channel expressed in HEK293 cells
[8] = target: T2, Voltage-gated inwardly rectifying potassium channel KCNH2; assay: Inhibition of human ERG Y652A mutant channel expressed in CHO cells by whole-cell patch clamp technique

| SMILES | pIC50 [1] | pIC50 [2] | pIC50 [3] | pIC50 [4] | inhibition (INH) [5] | Ratio IC50 (HEK293 [6]) | Ratio IC50 (HEK293 [7]) | pIC50 [8] |
| --- | --- | --- | --- | --- | --- | --- | --- | --- |
| CCCCN1CCCC[C@@H]1C(=O)Nc1c(C)cccc1C | 4.08 | 3.56 | 3.12 |  |  |  |  |  |
| CCCCN1CCCCC1C(=O)Nc1c(C)cccc1C.Cl (racemic) [BUPIVACAINE HYDROCHLORIDE] | 4.49 | 3.58 | 3.06 | 4.66 | Active | 10 | 30 | 4.02 |
| CCCCN1CCCC[C@H]1C(=O)Nc1c(C)cccc1C [LEVOBUPIVACAINE HYDROCHLORIDE] | 4.89 | 3.56 | 2.99 | 4.89 |  |  |  | 4.08 |
